The subject of one experiment is 26 month-old mice. Briefly: Total BDNF ELISA in hippocampus of aged mice. It is filed as in vivo, mouse. The settings on record: 50 mg/kg BID P.O. one week, p<0.05. As for the experimental part: The mice were handled in accordance with principles and guidelines established by the “Guide for the Care and Use of Laboratory Animals” and overseen by the BioAge Lab's institutional animal care and use committee (IACUC). Mice were housed conventionally in a constant temperature (20-22° C.) and humidity (40%-60%) animal room with a 12/12 h light/dark cycle and free access to food and water. 26 month-old mice were randomized based on the body weight and body condition scores to two groups (vehicle or BGE-105, n=8). Mice were administered P.O. vehicle or BGE-105 at 50 mg/kg (BID) for one week. […]
Hippocampal samples were homogenized with 30 volumes of radioimmunoprecipitation immunoassay (RIPA) buffer with Halt Protease and Phosphatase Inhibitor (Thermofisher) before being spun at 16,000×g for 20 minutes at 4° C. and supernatant removed to new, labeled tube. Total protein concentrations for each sample were analyzed with Pierce BCA Protein Assay Kit (Thermofisher) according to manufacturer's instructions, then all samples were diluted to 0.2 μg/μL with RIPA buffer.
For quantitative analysis of hippocampal BDNF expression, tissue samples were assessed with Quantikine® enzyme-linked immunosorbent assay (ELISA) for Total BDNF (R&D Systems) according to manufacturer's instructions. […]
In general terms: An ELISA detects its analyte on a solid surface through an enzyme-linked reagent.

For a further experiment, the system named is Mouse astrocyte cells. Briefly: Astrocyte gene expression (RT-PCR) after reactive astrocyte cocktail (RAC). Type of experiment: cell-based. As for the experimental part:
Mouse astrocyte cells were seeded on 24-well plates at a low density of approximately 20 k astrocytes per well. To stimulate astrocytes into a reactive state found in aging and neurodegenerative diseases per previous publications (Liddelow et al., 2017; Barbar et al., 2020), a combination of the cytokines TNF-α and IL-1α, and complement factor C1q, were added at 30 ng/mL, 3 ng/mL, and 400 ng/mL, respectively, into astrocyte culture media to make 'reactive astrocyte cocktail' (RAC) media. […] Bachem, Cat. #4029110), BAY-11-7082 (50 μM; Abcam, Cat. #ab141228) or equal volume of vehicle (0.01% DMSO in PBS) (hereafter referred to as 'RAC treatment'). Cells in Groups 3-6 were treated with RAC for 24 hours, with or without the test compounds (n=4 per group). • Group 1: Control [CON] • Group 2: CON+BGE-105 (50 nM) [CON+105] • Group 3: Reactive control treated with RAC only [RAC] • Group 4: RAC+BGE-105 (50 nM) [RAC+105] • Group 5: RAC+Pyrm-Apelin-13 (50 nM) • Group 6: RAC+BAY-11-7082 (NF-κB inhibitor; 50 μM) [RAC+BAY] Media from each tested cell group was collected for cytokine release analysis. Cells were lysed for RNA collection and RT-PCR was performed to synthesis cDNA under standard conditions. Next, transcriptome analysis was performed to determine the expression level of astrocyte genes or astrocyte responsive genes. Changes of expression was normalized to β-actin (FIGS. 8 and 9). Exemplary biomarkers include CCL2, CXCL10, CXCL11, CXCL1, CXCL2, CXCL3, CXCL8, EDN1, […]3, CIS, CTRL, C3, CFB, VEGF, and IL-6.

The subject of the next experiment is Embryonic rat neurons. Briefly: Neuronal survival after RAC-conditioned media (ApoTox-Glo Triplex Assay). It is filed as cell-based. The source says:
Mice were handled in accordance with principles and guidelines established by the “Guide for the Care and Use of Laboratory Animals” and overseen by the BioAge Lab's Institutional Animal Care and Use Committee (IACUC). Mouse primary astrocytes were isolated and cultured in 0.01% poly-L-lysine coated 6- or 12-well tissue culture plates at 200,000 or 120,000 cells/well, respectively, with astrocyte growth media as previously described in (Lundquist et al. 2022. Knockdown of Astrocytic Monocarboxylate Transporter 4 in the Motor Cortex Leads to Loss of Dendritic Spines and a Deficit in Motor Learning. Mol Neurobiol 59, 1002-1017). Embryonic rat neurons were purchased from ScienCell (Cat. #R1550) and cultured in neuronal media (ScienCell, Cat. #1521) per manufacturer's protocol, with slight modifications. Briefly, neurons were thawed and resuspended in neuronal media with the addition of 1 μg laminin (Sigma, Cat. #L2020) per 1 mL culture media, then plated in 0.01% poly-L-lysine coated 96-well tissue culture plates at 60,000 cells/well. […]
For analysis of neuronal survival, culture media was collected after RAC treatment and added directly to rat neurons (previously described above) for 24 hours. After exposure, neuronal viability was assessed with the ApoTox-Glo Triplex Assay according to manufacturer's protocol (Promega, Cat. #G6320). […]

The next experiment concerns rats. The settings on record: Ason et al., JCI Insight 2020; cited from earlier work.

Each structure is given as a SMILES string.

On to `COc1cccc(OC)c1-n1c(NS(=O)(=O)[C@@H](C)[C@H](C)c2ncc(C)cn2)nnc1-c1cncc(C)c1` [BGE-105, (2S,3R)—N-(4-(2,6-dimethoxyphenyl)-5-(5-methyl-3-pyridinyl)-4H-1,2,4-triazol-3-yl)-3-(5-methyl-2-pyrimidinyl)-2-butanesulfonamide], for which the “increase of concentration of total BDNF in the hippocampus” value with 26 month-old mice amounted to 20%. The “expression of biomarkers CXCL1, C3 and IL-6 in control astrocytes” value in the experiment on Mouse astrocyte cells (CON+105, BGE-105 50 nM, no RAC) is listed as “no or minimal impact”. The “reduction of IL-6 gene expression in RAC-induced reactive astrocytes” value in the experiment with Mouse astrocyte cells (RAC+105 (50 nM) versus RAC, 24 hours, p<0.0001) is 5-10 fold. Further, in the experiment with Mouse astrocyte cells (RAC+105 (50 nM) versus RAC, 24 hours, p=0.0015), the “reduction of C3 gene expression in RAC-induced reactive astrocytes” value was 10-20 fold. The “CXCL1 gene expression in RAC-induced reactive astrocytes” value with Mouse astrocyte cells (RAC+105 (50 nM) versus RAC, 24 hours, p=0.0204) is recorded as “significantly reduced”. In addition, in the experiment on Embryonic rat neurons (RAC+ex105 [50 nM], added directly to neurons in addition to the toxic RAC media), the “cell viability relative to RAC, exogenous BGE-105” value is recorded as “did not provide statistical change”. The “increase of cellular viability as compared to RAC” value in the experiment with Embryonic rat neurons (media of astrocytes treated with RAC+BGE105 [250 nM], added to neurons 24 hours) was “about 30%”. Also, the cardiovascular response result in the experiment on rats was “induces a cardiovascular response”.

The values are drawn from patent US20240041878A1, “APELIN RECEPTOR MODULATORS FOR TREATMENT OF A DISORDER OR DISEASE ASSOCIATED WITH BBB PERMEABILITY” (BioAge Labs, Inc., priority 2022, published 2024).
